Data: patent US20180072770A1, “Influenza Virus Binding Peptides” (priority 2014, published 2018)
No end group written: not given here.

How the values were obtained:
A/Aichi/2/68 H3N2 (X31) = assay type: binding, influenza A virus
A/NewYork/55/2004 H3N2 = assay type: binding, influenza A virus
A/California/7/2009 H1N1 = assay type: binding, influenza A virus
[1] = system: influenza A virus strains H3N2 (X31), H7N1, H1N1, H5N1, H3N2 (Victoria), H3N2 (NY); assay type: binding
[2] = system: X31 virus (A/Aichi/2/68 H3N2); assay: Inhibition of influenza A virus binding to fetuin (SPR)
A/Panama/2007/1999 H3N2 = assay type: cell-based, influenza A virus; details: read-out: Mean Ki(HAI)
influenza A virus = assay type: cell-based
A/Aichi/2/68 H3N2 [3] = assay type: cell-based, influenza A virus
A/Aichi/2/68 H3N2 [4] = assay: Viral fusion with human erythrocyte ghosts (R18 dequenching); assay type: cell-based, influenza A virus; details: concentration-dependent, maximum; pH 5; FIG. 7
A/Aichi/2/68 H3N2 [5] = assay: Infectivity inhibition assay (MTS, MDCK II cells); assay type: cell-based, influenza A virus; details: MOI 0.05, 24 h, concentration dependent, maximum, FIG. 8
[6] = system: A/Mute swan/Germany/R901/06 H7N1
A/Aichi/2/68 H3N2 [7] = system: A/Aichi/2/68 H3N2
[8] = system: A/Mute swan/Germany/R901/06 K3141 H7N1

For “SEQ ID NO:76 (FYDYDRFY; Synthetically produced peptide)”, the “virus binding (SPR)” value (A/Aichi/2/68 H3N2 (X31)) was “does not bind”, the “virus binding (SPR)” value (A/NewYork/55/2004 H3N2) was “specifically binds” and the “virus binding (SPR)” value (A/California/7/2009 H1N1) was “does not bind”.

In the case of “SEQ ID NO:29 (FYYYDVFF; Synthetically produced peptide)”, the “binding preference among the three tested strains” value (A/California/7/2009 H1N1) is reported as “shifts the binding preference strongly to H1N1/2009”.

With “SEQ ID NO:23 (FYYYDVFY; Synthetically produced peptide)” the “binding preference among the three tested strains” value (A/California/7/2009 H1N1) was “shifts the binding preference strongly to H1N1/2009”.

“SEQ ID NO:97 (FYGYDVKF; Synthetically produced peptide)” was tested, and the “relative binding preference for virus strains, in descending order” value (“relative binding preference” below) [1] was “H5N1 over H7N1, H3N2 (X31) and H3N2 (NY)”.

“SEQ ID NO:34 (FLGYDVFF; Synthetically produced peptide)” was tested, and the “relative binding preference” value [1] was “H3N2 (NY) over H5N1, H3N2 (X31) and H7N1”.

For “SEQ ID NO:33 (FYGYDVAF; Synthetically produced peptide)”, the “relative binding preference” value [1] was “H7N1 over H3N2 (X31), H3N2 (NY) and H5N1”.

For KKKKFYGYDVFF-NH2 [SEQ ID NO:28], the “factor of increased binding signal in comparison to SEQ ID NO:1” value (A/Aichi/2/68 H3N2 (X31)) was 2, the “factor of enhanced binding capability in comparison to SEQ ID NO:1” value (A/NewYork/55/2004 H3N2) was 4 and the “binding preference among the three tested strains” value (A/California/7/2009 H1N1) was “shifts the binding preference strongly to H1N1/2009”. The “factor of enhanced binding capability in comparison to SEQ ID NO:1” value (A/California/7/2009 H1N1) was 24, the IC50 ([2]; A/Aichi/2/68 H3N2 (X31), SPR, read-out: Inhibition of binding to fetuin (IC50, RB)) was 20 µM and the “fold lower IC50,RB in comparison to reference peptide SEQ ID NO:1” value ([2]; X31) was “about 4.5 fold”. For the same substance, the Ki (A/Panama/2007/1999 H3N2) was 0.1 µM, the “fold lower Ki(HAI) than the conventional peptides (SEQ ID NO:100, 101, 102)” value (influenza A virus) was “up to 1,600 fold” and the “inhibition of viral attachment to single red blood cells” value (A/Aichi/2/68 H3N2 [3]) was “up to 50%”. For the same substance, the “inhibition of fusion efficiency with erythrocyte ghosts” value (A/Aichi/2/68 H3N2 [4]) was “up to 40%”, the “protection from infection / reduction of infectivity” value (A/Aichi/2/68 H3N2 [5]) was “up to 55%” and the IC50 [6] was 30 µM. For the same substance, the IC50 (A/Aichi/2/68 H3N2 [7]; A/Aichi/2/68) was 18 µM, the Ki (A/Aichi/2/68 H3N2 [7]; read-out: Mean Ki(HAI)) was 31.9 µM and the IC50 [8] was 23 µM. For the same substance, the Ki ([8]; read-out: Mean Ki(HAI)) was 36.5 µM.
